According to PMC10223608, “Structural Congeners of Izenamides Responsible for Cathepsin D Inhibition: Insights from Synthesis-Derived Elucidation” (Marine Drugs, 2023):

Columns and labels:
[1] = target: T1, Human liver cathepsin D (Homo sapiens, UniProt P07339); assay: Cathepsin D (CTSD) human pepsin aspartic peptidase enzymatic assay (Eurofins Panlabs); type: biochemical; conditions: for Inhibition of CTSD (%): 190 mU/mL enzyme, modified acetate buffer pH 4.0, 15 min preincubation at 37 °C, 20 μM MOCAc substrate for 10 min, spectrofluorimetric read-out, duplicate, N.A. = not active
T1 construct: tissue Eurofins Panlabs Discovery Services (ran the assay); host or cells: human liver
T1 sequence (P07339 65-412): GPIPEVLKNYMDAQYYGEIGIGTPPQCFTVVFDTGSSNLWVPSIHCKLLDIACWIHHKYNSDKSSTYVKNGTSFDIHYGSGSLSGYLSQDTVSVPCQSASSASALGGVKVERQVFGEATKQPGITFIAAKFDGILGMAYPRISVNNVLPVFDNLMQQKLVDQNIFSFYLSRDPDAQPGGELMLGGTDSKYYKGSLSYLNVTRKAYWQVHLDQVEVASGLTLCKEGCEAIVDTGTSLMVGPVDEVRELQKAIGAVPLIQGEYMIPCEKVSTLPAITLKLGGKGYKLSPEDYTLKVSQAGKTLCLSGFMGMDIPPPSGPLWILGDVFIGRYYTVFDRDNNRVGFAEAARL
Method: The CTSD-inhibition assay was performed at Eurofins Panlabs Discovery Services by measuring the percentage inhibition at concentrations of 0.5 and 1.0 μM (Table 1).
Human liver cathepsin D was used for the enzymatic essay. Test compound or vehicle was preincubated with 190 mU/mL enzyme in modified acetate buffer pH 4.0 for 15 minutes at 37 °C. The reaction was initiated by addition of 20 μM MOCAc-[…]Dnp)-D-Arg NH2 for another 10-minute incubation period. Determination of the amount of MOCAc formed was read spectrofluorimetrically at 340 nm/400. Compounds were screened at 0.5 and 1.0 μM. Cathepsin-D-Human-Pepsin-Aspartic-Peptidase-Enzymatic-Assay-Panlabs (eurofinsdiscovery.com, accessed on 22 February 2022).

[2] = tested on: CTSD; conditions: natural izenamides; cited from earlier work
Text: In 2018, izenamides A-C (1–3), which are linear depsipeptides, were first isolated from the marine cyanobacterium 1605-5 by Suenaga et al (Figure 1). Izenamides A (1) and B (2) contain four amino acids (Pro-O-Me, N-Me-Phe, Ala, and Ile); two α-hydroxy acids (two valic acids for 1, and one valic acid and one isoleucic acid for 2); and a γ-amino-β-hydroxy acid moiety known as statine [(3S,4S)-4-amino-3-hydroxy-6-methylheptanoic acid, Sta]. Izenamide C (3) also contains Pro-O-Me, N-Me-Phe, Ile, and valic acid; however, it contains Gly in place of Ala in 1 and 2, as well as isoleucic acid. ...

Row | Substance | Inhibition of CTSD (%) ([1]; 0.5 μM compound) | Inhibition of CTSD (%) ([1]; 1.0 μM compound) | inhibitory activities against CTSD in vitro (in words) [2] | CTSD-inhibitory activity (in words) ([1]; screened at 0.5 and 1.0 μM)
1 | 18-epi-izenamide B [Compound 8] | 37.29 | 40.96 |  | 
2 | Sta-incorporated-izenamide C [Compound 7] | 26.99 | 36.07 |  | 
3 | izenamide A [Compound 1] | 10.13 | 15.55 | moderate inhibitory activities | 
4 | izenamide B [Compound 2] | 8.12 | 14.76 | moderate inhibitory activities | 
5 | izenamide C [Compound 3] |  |  | does not show CTSD inhibition | no CTSD inhibition
